Measurements from patent US20040132697A1, “Treatment of female sexual dysfunction” (Pfizer Inc., priority 2002, published 2004).
Counter-ions that a name gives are not always drawn.

Tests used:
[1] = tested on: anaesthetised rabbit model of female sexual arousal; assay: Anaesthetised rabbit model of female sexual arousal: pelvic nerve stimulated genital blood flow (laser Doppler); assay type: in vivo; conditions: for Potentiation of pelvic nerve stimulated increases in vaginal blood flow (% increase over basal increase): i.v. infusion, n=4
From the text: We have developed an animal model that mimics the physiological arousal response observed during female sexual arousal and directly reflects the clinical data obtained in human volunteers. The model uses Laser Doppler technologies to record small changes in vaginal and clitoral blood flow induced by pelvic nerve stimulation or vasoactive neurotransmitters. During sexual arousal, there is an increase in genital blood flow resulting from increased innervation from the pelvic nerve. The pelvic nerve-stimulated increase in vaginal and clitoral blood flow, observed in the animal model, represents the endogenous vascular effects observed during female sexual arousal. Therefore this model can be used to firstly, identify the mechanisms involved in the regulation of vaginal and clitoral blood flow and secondly, to validate novel approaches for the enhancement of genital blood flow.
(a) The Experimental Details are Described in European patent application EP 1 097 719 A1, Paragraphs [0495]-[0500]
(b) Infusion of Test Compound to Achieve Free Plasma Concentration Equivalent to 0.1 to 100 Times the pA2 α1A and/or α1L Adrenergic Receptors.
To achieve steady state plasma concentrations of the test compound, a loading dose was administered followed by infusion of a steady state dose. The test compound was made up in acidified saline (5% 1M HCl in saline) and details of the infusion protocols are given in the Table below. Test compound and vehicle controls were infused at the same rate. The test compound was infused for 15 minutes prior to pelvic nerve stimulation.
All data are reported as mean±s.e.m. (Standard error of the mean). Significant changes were identified using Student's t-tests (independent).
Compound 1, a potent and selective α1A and/or α1L adrenergic receptor antagonist, enhanced pelvic nerve stimulated (PNS) increases in genital blood flow in the anaesthetised rabbit model of sexual arousal. Repetitive PNS at 15 minute intervals induced reproducible increases in genital blood flow (Open Bar). […] The percentage increase over basal stimulations are showin in table 1 below. […] Data expressed as mean±sem (n=4); all changes were monitored using laser Doppler technologies.

[2] = tested on: FSAD; conditions: Rosen, R. C. et al (1999) J. Sex Marital Therapy 25, 137-144; cited from earlier work

Compound	Clitoral blood flow ([1]; data not shown)	Cardiovascular effects ([1]; during infusion)	Potentiation of pelvic nerve stimulated increases in vaginal blood flow (% increase over basal increase) ([1]; free plasma concentration 0.1 × pA2 α1A and/or α1L)	Potentiation of pelvic nerve stimulated increases in vaginal blood flow (% increase over basal increase) ([1]; free plasma concentration 1 × pA2 α1A and/or α1L)	Potentiation of pelvic nerve stimulated increases in vaginal blood flow (% increase over basal increase) ([1]; free plasma concentration 10 × pA2 α1A and/or α1L)	Potentiation of pelvic nerve stimulated increases in vaginal blood flow (% increase over basal increase) ([1]; free plasma concentration 100 × pA2 α1A and/or α1L)	Pelvic nerve stimulated (PNS) increases in genital blood flow ([1]; submaximal stimulation (eg 4 Hz), versus time matched or vehicle controls)	Effect on FSAD in small pilot study [2]
COc1cc(C2CC2)c2c(=O)[nH]c(N3CCc4nc(CN5CCOCC5)ccc4C3)nc2c1 [Compound 1, 5-cyclopropyl-7-methoxy-2-(2-(4-morpholinylmethyl)-7,8-dihydro[1,6]naphthyridin-6(5H)-yl)-4(3H)-quinazolinone]	increased	No significant cardiovascular effects	39%	102%	104%	213%	enhanced	–
Cc1ccc(N(CC2=NCCN2)c2cccc(O)c2)cc1 [Phentolamine mesylate]	–	–	–	–	–	–	–	mild improvements
